# Experimental data as given in ChEMBL document CHEMBL1201862, “PubChem BioAssay data set” (2004).
#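 Step 1: Grow cells in 96-well plates. Step 2: Expose to compound for 48 hours at 5 concentrations. Step 3: Interpolate endpoints linearly; if unreached, use highest concentration. The concentration for 50% growth inhibition is given as GI50.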 Calls of active or inactive are those of the source. No stated cut-off is given here; in the data, active = GI50 up to about 1.1 µM and inactive = higher.
# Key:
# Assay in all cases: growth of human tumour cells (NCI), 48 h
# HCT-116 = system: HCT-116
# MDA-MB-435 = system: MDA-MB-435
# SK-OV-3 = system: SK-OV-3
# HOP-92 = system: HOP-92
# NCI-H460 = system: NCI-H460
# CCRF-CEM = system: CCRF-CEM
# TK-10 = system: TK-10
# LOX IMVI = system: LOX IMVI
# SF-539 = system: SF-539
# SF-295 = system: SF-295
# KM12 = system: KM12
# RPMI-8226 = system: RPMI-8226
# SK-MEL-28 = system: SK-MEL-28
# T47D = system: T47D
# ACHN = system: ACHN
# OVCAR-4 = system: OVCAR-4
# SN12C = system: SN12C
# SNB-75 = system: SNB-75
# CAKI-1 = system: CAKI-1
# Malme-3M = system: Malme-3M
# K562 = system: K562
# SR = system: SR
# BT-549 = system: BT-549
# SF-268 = system: SF-268
# HT-29 = system: HT-29
# 786-0 = system: 786-0
# MOLT-4 = system: MOLT-4
# M14 = system: M14
# UACC-62 = system: UACC-62
# HOP-62 = system: HOP-62
# SK-MEL-2 = system: SK-MEL-2
# MCF7 = system: MCF7
# NCI-H23 = system: NCI-H23
# IGROV-1 = system: IGROV-1
# A498 = system: A498
# OVCAR-5 = system: OVCAR-5
# EKVX = system: EKVX
# MDA-MB-231 = system: MDA-MB-231
# OVCAR-8 = system: OVCAR-8
# RXF 393 = system: RXF 393
# PC-3 = system: PC-3
# SW-620 = system: SW-620
# HCC 2998 = system: HCC 2998
# SNB-19 = system: SNB-19
# U-251 = system: U-251
# A549 = system: A549
# UACC-257 = system: UACC-257
# NCI/ADR-RES = system: NCI/ADR-RES
# COLO 205 = system: COLO 205
# OVCAR-3 = system: OVCAR-3
# UO-31 = system: UO-31
# NCI-H522 = system: NCI-H522
# NCI-H226 = system: NCI-H226
# DU-145 = system: DU-145
# MDA-N = system: MDA-N
# Hs-578T = system: Hs-578T
# HL-60 = system: HL-60
# SK-MEL-5 = system: SK-MEL-5
# HCT-15 = system: HCT-15
# SNB-78 = system: SNB-78
# LXFL 529 = system: LXFL 529
# DMS-273 = system: DMS-273
# DLD-1 = system: DLD-1
# KM-20L2 = system: KM-20L2
compound,measurement,setting,value
COC1(c2cccs2)c2ccccc2C(OC)(c2cccs2)c2ccccc21 (stereo not drawn),GI50,HCT-116,17.4 µM (inactive)
same,GI50,MDA-MB-435,> 100 µM (inactive)
same,GI50,SK-OV-3,86.1 µM (inactive)
same,GI50,HOP-92,54.2 µM (inactive)
same,GI50,NCI-H460,> 100 µM (inactive)
same,GI50,CCRF-CEM,> 100 µM (inactive)
same,GI50,TK-10,36.8 µM (inactive)
same,GI50,LOX IMVI,> 100 µM (inactive)
same,GI50,SF-539,36.5 µM (inactive)
same,GI50,SF-295,28.3 µM (inactive)
same,GI50,KM12,> 100 µM (inactive)
same,GI50,RPMI-8226,63.2 µM (inactive)
same,GI50,SK-MEL-28,> 100 µM (inactive)
same,GI50,T47D,85.7 µM (inactive)
same,GI50,ACHN,> 100 µM (inactive)
same,GI50,OVCAR-4,33.7 µM (inactive)
same,GI50,SN12C,> 100 µM (inactive)
same,GI50,SNB-75,59.8 µM (inactive)
same,GI50,CAKI-1,> 100 µM (inactive)
same,GI50,Malme-3M,> 100 µM (inactive)
same,GI50,K562,36 µM (inactive)
same,GI50,SR,40.7 µM (inactive)
same,GI50,BT-549,78.5 µM (inactive)
same,GI50,SF-268,48.5 µM (inactive)
same,GI50,HT-29,50.8 µM (inactive)
same,GI50,786-0,35.3 µM (inactive)
same,GI50,MOLT-4,16.7 µM (inactive)
same,GI50,M14,81.1 µM (inactive)
same,GI50,UACC-62,47.3 µM (inactive)
same,GI50,HOP-62,42.3 µM (inactive)
same,GI50,SK-MEL-2,50.5 µM (inactive)
same,GI50,MCF7,84.7 µM (inactive)
same,GI50,NCI-H23,23.9 µM (inactive)
same,GI50,IGROV-1,> 100 µM (inactive)
same,GI50,A498,28.5 µM (inactive)
same,GI50,OVCAR-5,44.4 µM (inactive)
same,GI50,EKVX,36.9 µM (inactive)
same,GI50,MDA-MB-231,26.4 µM (inactive)
same,GI50,OVCAR-8,> 100 µM (inactive)
same,GI50,RXF 393,52.4 µM (inactive)
same,GI50,PC-3,42.9 µM (inactive)
same,GI50,SW-620,> 100 µM (inactive)
same,GI50,HCC 2998,49.3 µM (inactive)
same,GI50,SNB-19,42.8 µM (inactive)
same,GI50,U-251,42.4 µM (inactive)
same,GI50,A549,94.8 µM (inactive)
same,GI50,UACC-257,> 100 µM (inactive)
same,GI50,NCI/ADR-RES,92.7 µM (inactive)
same,GI50,COLO 205,85.5 µM (inactive)
same,GI50,OVCAR-3,> 100 µM (inactive)
same,GI50,UO-31,> 100 µM (inactive)
same,GI50,NCI-H522,97.9 µM (inactive)
same,GI50,NCI-H226,> 100 µM (inactive)
same,GI50,DU-145,71 µM (inactive)
same,GI50,MDA-N,> 100 µM (inactive)
same,GI50,Hs-578T,0.518 µM (active)
same,GI50,HL-60,> 100 µM (inactive)
same,GI50,SK-MEL-5,> 100 µM (inactive)
same,GI50,HCT-15,> 100 µM
O=[N+]([O-])c1cccc2nc3ccccc3c(NCCC[N+]3([O-])CCCCC3)c12,GI50,HCT-116,0.261 µM (active)
same,GI50,MDA-MB-435,0.18 µM (active)
same,GI50,SK-OV-3,1.02 µM (active)
same,GI50,HOP-92,0.275 µM (active)
same,GI50,NCI-H460,0.279 µM (active)
same,GI50,CCRF-CEM,0.546 µM (active)
same,GI50,TK-10,3.06 µM (inactive)
same,GI50,LOX IMVI,0.46 µM (active)
same,GI50,SF-539,0.479 µM (active)
same,GI50,SF-295,3.06 µM (inactive)
same,GI50,KM12,0.349 µM (active)
same,GI50,RPMI-8226,0.308 µM (active)
same,GI50,SK-MEL-28,0.502 µM (active)
same,GI50,T47D,0.41 µM (active)
same,GI50,ACHN,5.37 µM (inactive)
same,GI50,OVCAR-4,0.315 µM (active)
same,GI50,SN12C,0.39 µM (active)
same,GI50,SNB-75,0.416 µM (active)
same,GI50,CAKI-1,20 µM (inactive)
same,GI50,Malme-3M,0.168 µM (active)
same,GI50,K562,1.1 µM (active)
same,GI50,SR,0.0479 µM (active)
same,GI50,BT-549,0.501 µM (active)
same,GI50,SF-268,0.323 µM (active)
same,GI50,HT-29,0.301 µM (active)
same,GI50,786-0,0.438 µM (active)
same,GI50,MOLT-4,0.198 µM (active)
same,GI50,M14,1.2 µM (inactive)
same,GI50,UACC-62,0.272 µM (active)
same,GI50,HOP-62,0.927 µM (active)
same,GI50,SK-MEL-2,0.179 µM (active)
same,GI50,MCF7,0.176 µM (active)
same,GI50,NCI-H23,0.232 µM (active)
same,GI50,IGROV-1,0.394 µM (active)
same,GI50,A498,0.804 µM (active)
same,GI50,OVCAR-5,0.498 µM (active)
same,GI50,EKVX,0.438 µM (active)
same,GI50,MDA-MB-231,0.351 µM (active)
same,GI50,OVCAR-8,1.85 µM (inactive)
same,GI50,RXF 393,0.647 µM (active)
same,GI50,PC-3,0.255 µM (active)
same,GI50,SW-620,0.468 µM (active)
same,GI50,HCC 2998,0.136 µM (active)
same,GI50,SNB-19,0.638 µM (active)
same,GI50,U-251,0.289 µM (active)
same,GI50,A549,0.521 µM (active)
same,GI50,UACC-257,0.244 µM (active)
same,GI50,NCI/ADR-RES,> 100 µM (inactive)
same,GI50,COLO 205,0.143 µM (active)
same,GI50,OVCAR-3,0.281 µM (active)
same,GI50,UO-31,12.9 µM (inactive)
same,GI50,NCI-H522,0.134 µM (active)
same,GI50,NCI-H226,0.592 µM (active)
same,GI50,DU-145,0.35 µM (active)
same,GI50,MDA-N,0.176 µM (active)
same,GI50,Hs-578T,0.82 µM (active)
same,GI50,HL-60,0.745 µM (active)
same,GI50,SK-MEL-5,0.36 µM (active)
same,GI50,HCT-15,16 µM
Cc1ccc(C(=O)NC(C)(C)C)cc1/N=N/N(C)C,GI50,HCT-116,> 100 µM (inactive)
same,GI50,HOP-92,> 100 µM (inactive)
same,GI50,NCI-H460,> 100 µM (inactive)
same,GI50,TK-10,> 100 µM (inactive)
same,GI50,LOX IMVI,> 100 µM (inactive)
same,GI50,SF-539,> 100 µM (inactive)
same,GI50,SF-295,> 100 µM (inactive)
same,GI50,KM12,> 100 µM (inactive)
same,GI50,SK-MEL-28,> 100 µM (inactive)
same,GI50,ACHN,> 100 µM (inactive)
same,GI50,OVCAR-4,> 100 µM (inactive)
same,GI50,SN12C,> 100 µM (inactive)
same,GI50,CAKI-1,> 100 µM (inactive)
same,GI50,SF-268,42 µM (inactive)
same,GI50,HT-29,> 100 µM (inactive)
same,GI50,786-0,> 100 µM (inactive)
same,GI50,M14,> 100 µM (inactive)
same,GI50,UACC-62,> 100 µM (inactive)
same,GI50,HOP-62,> 100 µM (inactive)
same,GI50,SK-MEL-2,> 100 µM (inactive)
same,GI50,NCI-H23,> 100 µM (inactive)
same,GI50,IGROV-1,> 100 µM (inactive)
same,GI50,SNB-78,> 100 µM (inactive)
same,GI50,EKVX,> 100 µM (inactive)
same,GI50,OVCAR-8,> 100 µM (inactive)
same,GI50,SW-620,> 100 µM (inactive)
same,GI50,HCC 2998,> 100 µM (inactive)
same,GI50,LXFL 529,> 100 µM (inactive)
same,GI50,SNB-19,60.7 µM (inactive)
same,GI50,U-251,> 100 µM (inactive)
same,GI50,A549,> 100 µM (inactive)
same,GI50,UACC-257,> 100 µM (inactive)
same,GI50,OVCAR-3,69.5 µM (inactive)
same,GI50,DMS-273,> 100 µM (inactive)
same,GI50,UO-31,> 100 µM (inactive)
same,GI50,NCI-H522,50.5 µM (inactive)
same,GI50,DLD-1,> 100 µM (inactive)
same,GI50,KM-20L2,> 100 µM (inactive)
same,GI50,SK-MEL-5,> 100 µM (inactive)
same,GI50,HCT-15,> 100 µM
